Assay results as given in ChEMBL document CHEMBL1201862, “PubChem BioAssay data set” (2004).
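Following 48 hours of exposure in 96-well plates, responses at five concentrations were used to interpolate endpoints linearly. Here, GI50 denotes the concentration required for 50% inhibition of growth.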 Active and inactive are the calls of the source. Rule as the data show it: active = GI50 up to about 1.1 µM and inactive = higher.

Tests used:
Experiment in all cases: NCI tumour cell line growth inhibition, 48 h
HOP-62 = test system: HOP-62
COLO 205 = test system: COLO 205
DLD-1 = test system: DLD-1
DMS-114 = test system: DMS-114
HOP-92 = test system: HOP-92
DMS-273 = test system: DMS-273
UACC-257 = test system: UACC-257
OVCAR-3 = test system: OVCAR-3
HCT-116 = test system: HCT-116
EKVX = test system: EKVX
LOX IMVI = test system: LOX IMVI
SK-MEL-28 = test system: SK-MEL-28
Malme-3M = test system: Malme-3M
MOLT-4 = test system: MOLT-4
CAKI-1 = test system: CAKI-1
SF-539 = test system: SF-539
M19-MEL = test system: M19-MEL
HOP-18 = test system: HOP-18
KM12 = test system: KM12
OVCAR-8 = test system: OVCAR-8
NCI-H226 = test system: NCI-H226
SK-OV-3 = test system: SK-OV-3
HCC 2998 = test system: HCC 2998
HCT-15 = test system: HCT-15
U-251 = test system: U-251
CCRF-CEM = test system: CCRF-CEM
RXF 393 = test system: RXF 393
OVCAR-4 = test system: OVCAR-4
786-0 = test system: 786-0
M14 = test system: M14
SR = test system: SR
A549 = test system: A549
HT-29 = test system: HT-29
SNB-75 = test system: SNB-75
SK-MEL-5 = test system: SK-MEL-5
KM-20L2 = test system: KM-20L2
UO-31 = test system: UO-31
ACHN = test system: ACHN
SNB-19 = test system: SNB-19
UACC-62 = test system: UACC-62
TK-10 = test system: TK-10
A498 = test system: A498
SNB-78 = test system: SNB-78
RPMI-8226 = test system: RPMI-8226
NCI-H460 = test system: NCI-H460
NCI-H522 = test system: NCI-H522
OVCAR-5 = test system: OVCAR-5
LXFL 529 = test system: LXFL 529
SW-620 = test system: SW-620
SF-295 = test system: SF-295
IGROV-1 = test system: IGROV-1
SN12C = test system: SN12C
SF-268 = test system: SF-268
HL-60 = test system: HL-60

O=C1CC2C=CC1C2CO (centres undefined)
GI50 (HOP-62): > 100 µM (inactive) | GI50 (COLO 205): > 100 µM (inactive) | GI50 (DLD-1): > 100 µM (inactive) | GI50 (DMS-114): > 100 µM (inactive) | GI50 (HOP-92): > 100 µM (inactive) | GI50 (DMS-273): > 100 µM (inactive) | GI50 (UACC-257): > 100 µM (inactive) | GI50 (OVCAR-3): > 100 µM (inactive) | GI50 (HCT-116): > 100 µM (inactive) | GI50 (EKVX): > 100 µM (inactive) | GI50 (LOX IMVI): > 100 µM (inactive) | GI50 (SK-MEL-28): > 100 µM (inactive) | GI50 (Malme-3M): > 100 µM (inactive) | GI50 (MOLT-4): > 100 µM (inactive) | GI50 (CAKI-1): > 100 µM (inactive) | GI50 (SF-539): > 100 µM (inactive) | GI50 (M19-MEL): > 100 µM (inactive) | GI50 (HOP-18): > 100 µM (inactive) | GI50 (KM12): > 100 µM (inactive) | GI50 (OVCAR-8): > 100 µM (inactive) | GI50 (NCI-H226): > 100 µM (inactive) | GI50 (SK-OV-3): > 100 µM (inactive) | GI50 (HCC 2998): > 100 µM (inactive) | GI50 (HCT-15): > 100 µM | GI50 (U-251): > 100 µM (inactive) | GI50 (CCRF-CEM): > 100 µM (inactive) | GI50 (RXF 393): > 100 µM (inactive) | GI50 (OVCAR-4): > 100 µM (inactive) | GI50 (786-0): > 100 µM (inactive) | GI50 (M14): > 100 µM (inactive) | GI50 (SR): > 100 µM (inactive) | GI50 (A549): > 100 µM (inactive) | GI50 (HT-29): > 100 µM (inactive) | GI50 (SNB-75): > 100 µM (inactive) | GI50 (SK-MEL-5): > 100 µM (inactive) | GI50 (KM-20L2): > 100 µM (inactive) | GI50 (UO-31): > 100 µM (inactive) | GI50 (ACHN): > 100 µM (inactive) | GI50 (SNB-19): > 100 µM (inactive) | GI50 (UACC-62): > 100 µM (inactive) | GI50 (TK-10): > 100 µM (inactive) | GI50 (A498): > 100 µM (inactive) | GI50 (SNB-78): > 100 µM (inactive) | GI50 (RPMI-8226): > 100 µM (inactive) | GI50 (NCI-H460): > 100 µM (inactive) | GI50 (NCI-H522): > 100 µM (inactive) | GI50 (OVCAR-5): > 100 µM (inactive) | GI50 (LXFL 529): > 100 µM (inactive) | GI50 (SW-620): > 100 µM (inactive) | GI50 (SF-295): > 100 µM (inactive) | GI50 (IGROV-1): > 100 µM (inactive) | GI50 (SN12C): > 100 µM (inactive) | GI50 (SF-268): > 100 µM (inactive) | GI50 (HL-60): > 100 µM (inactive)
